Measured values taken from patent US20230128137A1, “BENZO FIVE-MEMBERED CYCLIC COMPOUND” (MEDSHINE DISCOVERY INC., priority 2020, published 2023).
“And” between values parts separate entries of the source, which are not always exact repeats. Identical values can stand only once.

Columns and labels:
[1] = test system: human acute lymphoblastic leukemia cell RS4;11 graft tumor; assay: In vivo anti-tumor effect, RS4;11 graft tumor model in BALB/c nude mice; design: species or system BALB/c nude mouse; settings: for T/C (relative tumor proliferation rate) / TGI (tumor growth inhibition rate): based on tumor volume on day 32
Description: 5.1 Experimental animals: Balb/c nude mice, 32 mice, 7 to 8 weeks old, female;
5.2 tumor cells: human acute lymphoblastic leukemia cell line RS4;11, cultured in a suspension in vitro, and the culture conditions were RPMI-1640 culture medium containing 10% fetal bovine serum, cultured in a 5% CO2 incubator at 37° C. When the cells were in exponential growth period and the saturation was 80% to 90%, the cells were collected and counted;
5.3 cell seeding and grouping: the cells were resuspended in […], and the basement membrane matrigel was added in 1:1, and the mixture was mixed well, and the density was 5×10^7 cells/mL. 0.2 mL of cell suspension (containing 1×10^7 RS4;11 cells) was subcutaneously inoculated on the right back of each mouse, and when the average tumor volume reached about 120 mm^3, the drug was administered randomly according to the tumor volume;
5.4 preparation of the subject: an appropriate amount of compound 2 was weighed respectively, and the solvent formula was 2.5% dimethyl sulfoxide, 5% ethanol, 10% cremophor EL, 20% glucose solution (concentration of 5%), 62.5% water;
5.5 tumor-bearing mice divided into four groups (8 mice in each group) were given blank solvent, compound 2 (12.5 mpk, QD), compound 2 (25 mpk, QD) and compound 2 (50 mpk, QD), respectively;
5.6 tumor measurement and experimental indicators:
tumor diameters were measured with vernier calipers two times a week. The calculation formula of tumor volume is: V=0.5×a×b^2, a represents the long diameter of the tumor, and b represents the short diameter of the tumor. The tumor inhibition efficacy of the compounds was evaluated by TGI (%) or relative tumor proliferation rate T/C (%).
Relative tumor proliferation rate T/C %=TRTV/CRTV×100% (TRTV: RTV in the treatment group; CRTV: RTV in the negative control group). The relative tumor volume (RTV) is calculated according to the results of tumor measurement, and the formula is RTV=Vt/V0, where V0 is the tumor volume measured at the time of group administration (i.e., D0), and Vt is the tumor volume measured at a certain measurement, TRTV and CRTV were taken on the same day.
TGI (%), reflecting the tumor growth inhibition rate. The formula for calculating the tumor inhibition efficacy TGI is: […]

[2] = molecular target: T1, Bcl-xL (Homo sapiens, UniProt Q07817); assay: HTRF competition test, Bcl-xL with FAM-Bad peptide (enzymology experiment); type: binding; settings: 3 nM Bcl-xL and 40 nM FAM-Bad, read-out: IC50 (nM) for inhibition of Bcl-xL enzyme
T1 construct: Human recombinant Bcl-xL (amino acid 1-209); purchased Reaction Biology Corporation (RBC) APT-11-442; host or cells: E. coli
T1 sequence (Q07817 1-209): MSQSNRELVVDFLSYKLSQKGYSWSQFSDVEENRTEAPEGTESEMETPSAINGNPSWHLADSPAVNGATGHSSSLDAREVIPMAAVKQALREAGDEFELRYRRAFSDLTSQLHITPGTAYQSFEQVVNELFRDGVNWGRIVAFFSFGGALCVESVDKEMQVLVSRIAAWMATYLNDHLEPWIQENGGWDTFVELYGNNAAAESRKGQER
Description: (§1) This experiment was based on the competition between fluorescently-labeled Bak/Bad/Noxa peptides and GST-labeled Bcl family proteins. The fluorescence detection method based on HTRF was to observe the binding degree by using the fluorescence ratio between Tb-labeled anti-GST and FAM-labeled peptides. This peptide binds to the surface of the Bcl family protein pocket, which is essential for its anti-apoptotic function.
(§2) 1.1 Experimental reagents: analysis buffer: 20 mM potassium phosphate, pH 7.5, 50 mM sodium chloride, 1 mM EDTA, 0.005% Tritonx-100 and 1% DMSO.
(§3) 1.2 Probe: 5,6-FAM-peptide
(§4) 1.4 Experimental Conditions:
3 nM Bcl-xL and 40 nM FAM-Bad
(§5) a) The Bcl enzyme reaction solution was prepared in the newly prepared analysis buffer;
(§6) b) the Bcl enzyme reaction solution was provided;
(§7) c) the compound was first prepared into a 100% dimethyl sulfoxide solution, and then the compound solution was mixed with the Bcl enzyme reaction solution using (Echo550; nanoliter range) technology, and co-incubated for 10 minutes;
(§8) d) the FAM peptide solution was added.
(§9) e) the mixed solution was gently stirred in dark and room temperature, and co-cultured for 10 minutes.
(§10) f) Anti-GST solution was added.
(§11) g) The mixed solution was gently stirred in dark and room temperature, and co-cultured for 1 hour.
(§12) h) The HTRF high-frequency fluorescence ratio was tested, and the IC50 values were calculated.

[3] = molecular target: T2, Bcl-2 (Homo sapiens, UniProt P10415); assay: HTRF competition test, Bcl-2 with FAM-BAK peptide (enzymology experiment); type: binding; settings: 4 nM Bcl-2 and 100 nM FAM-BAK, read-out: IC50 (nM) for inhibition of Bcl-2 enzyme
T2 construct: Human recombinant Bcl-2 (amino acid 1-207); purchased Reaction Biology Corporation (RBC) APT-11-441; host or cells: E. coli
T2 sequence (P10415 1-207): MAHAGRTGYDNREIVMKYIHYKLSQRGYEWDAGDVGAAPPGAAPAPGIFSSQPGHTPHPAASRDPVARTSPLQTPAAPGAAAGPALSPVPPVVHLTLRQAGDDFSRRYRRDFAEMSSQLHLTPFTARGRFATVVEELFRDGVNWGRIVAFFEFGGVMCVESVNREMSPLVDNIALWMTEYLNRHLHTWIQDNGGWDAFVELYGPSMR
Description: as §1, §2, §3, §4
4 nM Bcl-2 and 100 nM FAM-BAK
as §5, §6, §7, §8, §9, §10, §11, §12

SMILES: CC1(C)CCC(CN2CCN(c3ccc(C(=O)NS(=O)(=O)c4cc([N+](=O)[O-])c(NCC5CCOCC5)c5[nH]cnc45)c(Oc4cnc5[nH]ccc5c4)c3)CC2)=C(c2ccc(Cl)cc2)C1 [Compound 2]
- animal state during the experiment ([1]; 12.5, 25, 50 mpk, QD): normal
- T/C (relative tumor proliferation rate) ([1]; 12.5 mpk, QD): 22.37%
- TGI (tumor growth inhibition rate) ([1]; 12.5 mpk, QD): 82.12%
- Tumor volume ([1]; 12.5 mpk, QD, day 1 after administration, mean ± SEM, n = 8): 114.44 ± 4.91 mm^3 and 114.44 mm^3
- Tumor volume ([1]; 12.5 mpk, QD, day 4 after administration): 124.75 ± 10.85 mm^3
- Tumor volume ([1]; 12.5 mpk, QD, day 6 after administration): 120.60 ± 12.60 mm^3
- Tumor volume ([1]; 12.5 mpk, QD, day 8 after administration): 124.22 ± 15.25 mm^3
- Tumor volume ([1]; 12.5 mpk, QD, day 11 after administration): 126.73 ± 11.57 mm^3
- Tumor volume ([1]; 12.5 mpk, QD, day 14 after administration): 145.41 ± 17.58 mm^3
- Tumor volume ([1]; 12.5 mpk, QD, day 18 after administration): 198.17 ± 38.18 mm^3
- Tumor volume ([1]; 12.5 mpk, QD, day 21 after administration): 209.63 ± 39.56 mm^3
- Tumor volume ([1]; 12.5 mpk, QD, day 25 after administration): 254.52 ± 52.29 mm^3
- Tumor volume ([1]; 12.5 mpk, QD, day 28 after administration): 306.93 ± 66.01 mm^3
- Tumor volume ([1]; 12.5 mpk, QD, day 32 after administration, mean ± SEM, n = 8): 365.13 ± 85.31 mm^3 and 365.13 mm^3
- T/C (relative tumor proliferation rate) ([1]; 25 mpk, QD): 16.54%
- TGI (tumor growth inhibition rate) ([1]; 25 mpk, QD): 89.15%
- Tumor volume ([1]; 25 mpk, QD, day 1 after administration, mean ± SEM, n = 8): 114.50 ± 4.98 mm^3 and 114.50 mm^3
- Tumor volume ([1]; 25 mpk, QD, day 4 after administration): 99.54 ± 6.66 mm^3
- Tumor volume ([1]; 25 mpk, QD, day 6 after administration): 106.03 ± 13.15 mm^3
- Tumor volume ([1]; 25 mpk, QD, day 8 after administration): 107.66 ± 15.62 mm^3
- Tumor volume ([1]; 25 mpk, QD, day 11 after administration): 101.57 ± 15.87 mm^3
- Tumor volume ([1]; 25 mpk, QD, day 14 after administration): 116.52 ± 28.85 mm^3
- Tumor volume ([1]; 25 mpk, QD, day 18 after administration): 146.77 ± 44.03 mm^3
- Tumor volume ([1]; 25 mpk, QD, day 21 after administration): 191.06 ± 69.68 mm^3
- Tumor volume ([1]; 25 mpk, QD, day 25 after administration): 174.50 ± 58.56 mm^3
- Tumor volume ([1]; 25 mpk, QD, day 28 after administration): 206.82 ± 76.64 mm^3
- Tumor volume ([1]; 25 mpk, QD, day 32 after administration, mean ± SEM, n = 8): 266.63 ± 95.51 mm^3 and 266.63 mm^3
- T/C (relative tumor proliferation rate) ([1]; 50 mpk, QD): 7.30%
- TGI (tumor growth inhibition rate) ([1]; 50 mpk, QD): 100.27%
- Tumor volume ([1]; 50 mpk, QD, day 1 after administration, mean ± SEM, n = 8): 114.18 ± 4.30 mm^3 and 114.18 mm^3
- Tumor volume ([1]; 50 mpk, QD, day 4 after administration): 95.13 ± 7.43 mm^3
- Tumor volume ([1]; 50 mpk, QD, day 6 after administration): 91.16 ± 6.08 mm^3
- Tumor volume ([1]; 50 mpk, QD, day 8 after administration): 86.91 ± 4.92 mm^3
- Tumor volume ([1]; 50 mpk, QD, day 11 after administration): 67.64 ± 3.93 mm^3
- Tumor volume ([1]; 50 mpk, QD, day 14 after administration): 74.27 ± 6.37 mm^3
- Tumor volume ([1]; 50 mpk, QD, day 18 after administration): 58.39 ± 6.94 mm^3
- Tumor volume ([1]; 50 mpk, QD, day 21 after administration): 70.21 ± 8.91 mm^3
- Tumor volume ([1]; 50 mpk, QD, day 25 after administration): 75.62 ± 10.30 mm^3
- Tumor volume ([1]; 50 mpk, QD, day 28 after administration): 78.03 ± 9.52 mm^3
- Tumor volume ([1]; 50 mpk, QD, day 32 after administration, mean ± SEM, n = 8): 110.37 ± 19.73 mm^3 and 110.37 mm^3
- tumor inhibition effect (in words) ([1]; three dose groups (12.5, 25, 50 mpk, QD), obvious dose-dependence): significant tumor inhibition effect
- IC50 [2]: 411 nM
- IC50 [3]: 1.5 nM
